Data published in ChEMBL document CHEMBL6109095, “Impact of fixed phosphorus position on activity of triazole bisphosphonates as geranylgeranyl diphosphate synthase inhibitors” (Bioorg Med Chem, 2025).
The source made the active and inactive calls. No cut-off for these calls is given here.

Experiments:
[1] = biological target: T1, Geranylgeranyl pyrophosphate synthase (Homo sapiens) (UniProt O95749); test: Inhibition of GGDPS in human RPMI-8226 cells assessed as lowest effective concentration required to show unmodified Rap1a band measured after 48 hrs by immunoblot analysis; type: cell-based
T1 sequence (whole entry): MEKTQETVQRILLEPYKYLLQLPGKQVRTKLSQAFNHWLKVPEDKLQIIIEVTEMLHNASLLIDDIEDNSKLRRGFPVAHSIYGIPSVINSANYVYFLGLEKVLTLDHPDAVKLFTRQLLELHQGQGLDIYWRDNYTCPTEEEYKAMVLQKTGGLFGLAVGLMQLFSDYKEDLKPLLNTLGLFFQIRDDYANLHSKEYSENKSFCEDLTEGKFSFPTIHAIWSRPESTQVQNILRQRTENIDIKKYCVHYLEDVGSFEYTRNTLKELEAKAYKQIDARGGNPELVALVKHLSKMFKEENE

[2] = biological target: T1, Geranylgeranyl pyrophosphate synthase (Homo sapiens); test: Inhibition of GGDPS in human RPMI-8226 cells assessed as lowest effective concentration required for increase in intracellular lambda chain level after 48 hrs by ELISA; type: cell-based
[3] = biological target: T2, Geranylgeranyl pyrophosphate synthase (Homo sapiens, UniProt O95749); test: Inhibition of recombinant GGDPS (unknown origin) using [14C] IPP and FPP as substrate preincubated for 10 mins followed by substrate addition and measured after 30 mins by scintillation counting method
T2 sequence (O95749 whole entry): T1 sequence (whole entry)

[4] = biological target: T1, Geranylgeranyl pyrophosphate synthase (Homo sapiens); test: Inhibition of GGDPS in human MM1.S cells assessed as lowest effective concentration required to show unmodified Rap1a band measured after 48 hrs by immunoblot analysis; type: cell-based
[5] = biological target: T1, Geranylgeranyl pyrophosphate synthase (Homo sapiens); test: Inhibition of GGDPS in human SAOS-2 cells assessed as lowest effective concentration required to show unmodified Rap1a band measured after 48 hrs by immunoblot analysis; type: cell-based
[6] = biological target: T1, Geranylgeranyl pyrophosphate synthase (Homo sapiens); test: Inhibition of GGDPS in human 143B cells assessed as lowest effective concentration required to show unmodified Rap1a band measured after 48 hrs by immunoblot analysis; type: cell-based
[7] = biological target: T1, Geranylgeranyl pyrophosphate synthase (Homo sapiens); test: Inhibition of GGDPS in human MG-63 cells assessed as lowest effective concentration required to show unmodified Rap1a band measured after 48 hrs by immunoblot analysis; type: cell-based
[8] = test system: RPMI-8226; test: Cytotoxicity against human RPMI-8226 cells assessed as reduction in cell viability up to 10 uM measured after 48 hrs by MTT assay; type: functional, cell-based
[9] = test system: 143B; test: Cytotoxicity against human 143B cells assessed as reduction in cell viability up to 10 uM measured after 48 hrs by MTT assay; type: functional, cell-based
[10] = biological target: T1, Geranylgeranyl pyrophosphate synthase (Homo sapiens); test: Inhibition of GGDPS in human MG-63 cells assessed as appearance of unmodified Rap1a band at 0.1 to 1 uM measured after 48 hrs by immunoblot analysis; type: cell-based; conditions: dose 0.1-1 µM
[11] = biological target: T1, Geranylgeranyl pyrophosphate synthase (Homo sapiens); test: Inhibition of GGDPS in human 143B cells assessed as appearance of unmodified Rap1a band at 0.1 to 1 uM measured after 48 hrs by immunoblot analysis; type: cell-based; conditions: dose 0.1-1 µM
[12] = biological target: T1, Geranylgeranyl pyrophosphate synthase (Homo sapiens); test: Inhibition of GGDPS in human SAOS-2 cells assessed as appearance of unmodified Rap1a band at 0.1 to 1 uM measured after 48 hrs by immunoblot analysis; type: cell-based; conditions: dose 0.1-1 µM
[13] = biological target: T1, Geranylgeranyl pyrophosphate synthase (Homo sapiens); test: Inhibition of GGDPS in human MM1.S cells assessed as appearance of unmodified Rap1a band measured after 48 hrs by immunoblot analysis; type: cell-based
[14] = biological target: T1, Geranylgeranyl pyrophosphate synthase (Homo sapiens); test: Inhibition of GGDPS in human MM1.S cells assessed as appearance of unmodified Rap1a band at 1 to 100 uM measured after 48 hrs by immunoblot analysis; type: cell-based; conditions: dose 1-100 µM
[15] = Apparent permeability of the compound by PAMPA; type: ADME
[16] = biological target: T1, Geranylgeranyl pyrophosphate synthase (Homo sapiens); test: Inhibition of GGDPS in human RPMI-8226 cells assessed as appearance of unmodified Rap1a band up to 100 uM measured after 48 hrs by immunoblot analysis; type: cell-based
[17] = biological target: T1, Geranylgeranyl pyrophosphate synthase (Homo sapiens); test: Inhibition of GGDPS in human RPMI-8226 cells assessed as increase in intracellular lambda chain level up to 100 uM after 48 hrs by ELISA; type: cell-based

Row | Structure (SMILES) | LED [1] [µM] | LED [2] [µM] | IC50 [3] [nM] | LED [5] [µM] | LED [6] [µM] | LED [7] [µM] | further results
1 | CC(C)=CCC/C(C)=C/CCn1cc(CC(P(=O)(O)O)P(=O)(O)O)nn1 | 0.09 | 0.09 | – | – | – | – | –
2 | CC(C)=CCCC(C)=CCn1cc(CC(P(=O)(O)O)P(=O)(O)O)nn1 | 0.5 | 0.5 | – | – | – | – | –
3 | CC(C)=CCC/C(C)=C\CCn1cc(C=C(P(=O)(O)O)P(=O)(O)O)nn1 | 0.25 | 0.25 | 370 | 0.01 | 0.25 | 0.25 | LED [4]: 0.25 µM; Activity [8]: Active; Activity [9]: Active
4 | CC(C)=CCCC(C)=CCn1cc(C2CC2(P(=O)(O)O)P(=O)(O)O)nn1 (stereo unspecified) | 0.5 | 0.5 | – | – | – | – | –
5 | CC(C)=CCCC(C)CCCn1cc(CC(P(=O)(O)O)P(=O)(O)O)nn1 (stereo unspecified) | 10 | 10 | 25100 | – | – | – | –
6 | CC(C)=CCCC(C)=CCn1cc(C=C(P(=O)(O)O)P(=O)(O)O)nn1 | 0.25 | 0.25 | – | – | – | – | –
7 | CC(C)=CCCC(C)=CCCn1cc(CC(P(=O)(O)O)P(=O)(O)O)nn1 | 0.03 | 0.03 | – | – | – | – | –
8 | CC(C)=CCC/C(C)=C\CCn1cc(C2OC2(P(=O)(O)O)P(=O)(O)O)nn1 (stereo unspecified) | 2.5 | 2.5 | 2360 | – | – | – | inhibition [10]: Active; inhibition [11]: Active; inhibition [12]: Active
9 | CC(C)=CCCC(C)=CCn1cc(C2OC2(P(=O)(O)O)P(=O)(O)O)nn1 (stereo unspecified) | 5 | 5 | 11000 | 0.5 | 5 | 5 | LED [4]: 5 µM
10 | CC(C)=CCC/C(C)=C/CCn1cc(C2CC2(P(=O)(OCOC(=O)C(C)(C)C)OCOC(=O)C(C)(C)C)P(=O)(OCOC(=O)C(C)(C)C)OCOC(=O)C(C)(C)C)nn1 (stereo unspecified) | 5 | 5 | – | 5 | 5 | 5 | inhibition [13]: Not active; No Evidence Of Disruption Of Geranylgeranylation Was Observed
11 | CC(C)=CCC/C(C)=C/CCn1cc(CC(C)(P(=O)(O)O)P(=O)(O)O)nn1 | 0.02 | 0.02 | – | – | – | – | –
12 | CC(C)=CCC/C(C)=C/CCn1cc(C=C(P(=O)(O)O)P(=O)(O)O)nn1 | 0.25 | 0.25 | 400 | 0.01 | 0.25 | 0.25 | LED [4]: 0.25 µM; Activity [8]: Active; Activity [9]: Active
13 | CC(C)=CCC/C(C)=C/CCn1cc(C2CC2(P(=O)([O-])[O-])P(=O)([O-])[O-])nn1.[Na+].[Na+].[Na+].[Na+] (stereo unspecified) | 100 | 100 | 890 | 5 | 5 | 5 | inhibition [14]: Not active; No Appreciable Activity Observed; Papp [15]: 0.061 10^-6 cm/s
14 | CC(C)=CCC/C(C)=C/CCn1cc(C2OC2(P(=O)(O)O)P(=O)(O)O)nn1 (stereo unspecified) | – | – | 450 | – | – | – | inhibition [16]: inactive; inhibition [17]: inactive; inhibition [10]: Active; inhibition [11]: Active; inhibition [12]: Active
15 | CC(C)=CCC/C(C)=C\CCn1cc(C2CC2(P(=O)([O-])[O-])P(=O)([O-])[O-])nn1.[Na+].[Na+].[Na+].[Na+] (stereo unspecified) | 100 | 100 | 2870 | 50 | 50 | 50 | inhibition [14]: Not active; No Appreciable Activity Observed; Papp [15]: 0.283 10^-6 cm/s
16 | CC(C)=CCCC(C)CCCn1cc(C=C(P(=O)(O)O)P(=O)(O)O)nn1 (stereo unspecified) | 50 | 50 | > 100000 | – | – | – | –
17 | CC(C)=CCCC(C)CCCn1cc(C2CC2(P(=O)(O)O)P(=O)(O)O)nn1 (stereo unspecified) | – | – | > 100000 | – | – | – | inhibition [16]: inactive; inhibition [17]: inactive
18 | CC(C)=CCC/C(C)=C\CCn1cc(CC(C)(P(=O)(O)O)P(=O)(O)O)nn1 | 0.025 | – | – | – | – | – | –
